Results published in publication PMC3299850 (2012).

Tests used:
[1] = system: HP1 (TAMRA at T37) (DNA, hairpin, T37 replaced by 2'-deoxyuridine bearing TAMRA at C5) CCTGGAGAGGAAGCCAAGTGTTTTCACTTGGCTTCCTCTCCAGG; experiment: fluorescence titration; conditions: 50 mM NaCl; 10 mM HEPES, 1 mM EDTA, pH 7.4, 25 °C
[2] = system: HP2 unlabeled (DNA, hairpin) GCTAGATATATAGCTTTTTAGCTATATATCTAGC; experiment: competition fluorescence titration; conditions: 50 mM NaCl; 10 mM HEPES, 1 mM EDTA, pH 7.4, 25 °C; TAMRA-HP2 complex displaced
[3] = system: HP1 (TAMRA at T34) (DNA, hairpin, T34 replaced by 2'-deoxyuridine bearing TAMRA at C5) CCTGGAGAGGAAGCCAAGTGTTTTCACTTGGCTTCCTCTCCAGG; experiment: fluorescence titration; conditions: 50 mM NaCl; 10 mM HEPES, 1 mM EDTA, pH 7.4, 25 °C

Kd [1]	Compound	further results
140 ± 30 nM	CN(C)CCCNC(=O)CCNC(=O)c1cc(NC(=O)c2cc(NC(=O)c3cc(NC(=O)c4cc(NC(=O)CCCNC(=O)c5nc(NC(=O)CCNC(=O)c6nc(NC(=O)c7nccn7C)cn6C)cn5C)cn4C)cn3C)cn2C)cn1C	–
50 ± 15 nM	CN(C)CCCNC(=O)CCNC(=O)c1cc(NC(=O)CCNC(=O)c2cc(NC(=O)c3cc(NC(=O)CCCNC(=O)c4nc(NC(=O)c5cc(NC(=O)c6nc(NC(=O)c7nccn7C)cn6C)cn5C)cn4C)cn3C)cn2C)cn1C	–

More lines, now with the values behind:

Compound	Kd [1]	further results
CN(C)CCCNC(=O)CCNC(=O)c1cc(NC(=O)c2cc(NC(=O)c3nc(NC(=O)c4cc(NC(=O)CCCNC(=O)c5cc(NC(=O)c6cc(NC(=O)c7nc(NC(=O)c8nccn8C)cn7C)cn6C)cn5C)cn4C)cn3C)cn2C)cn1C	2.3 ± 0.3 nM	–
CN(C)CCCNC(=O)CCNC(=O)c1cc(NC(=O)c2cc(NC(=O)c3nc(NC(=O)CCCNC(=O)c4cc(NC(=O)c5nc(NC(=O)c6nccn6C)cn5C)cn4C)cn3C)cn2C)cn1C	7.8 ± 1.6 nM	–
CN(CCCN)CCCNC(=O)CCNC(=O)c1cc(NC(=O)c2cc(NC(=O)c3cc(NC(=O)c4cc(NC(=O)CCNC(=O)c5cc(NC(=O)c6cc(NC(=O)CCCNC(=O)c7cc(NC(=O)c8cc(NC(=O)c9cc(NC(=O)CCNC(=O)c%10cc(NC(=O)c%11cc(NC(=O)c%12nccn%12C)cn%11C)cn%10C)cn9C)cn8C)cn7C)cn6C)cn5C)cn4C)cn3C)cn2C)cn1C	–	Kd [2]: 1.8 nM
CN(C)CCCNC(=O)CCNC(=O)c1cc(NC(=O)c2nc(NC(=O)c3nc(NC(=O)c4cc(NC(=O)CCCNC(=O)c5cc(NC(=O)c6cc(NC(=O)c7cc(NC(=O)c8nccn8C)cn7C)cn6C)cn5C)cn4C)cn3C)cn2C)cn1C	–	Kd [3]: 11.4 ± 1 nM
